According to patent US12398132B2, “Derivatives of 4-(imidazo[1,2-a]pyridin-3-yl)-n-(pyridinyl)pyrimidin-2-amine as therapeutic agents” (AUCENTRA THERAPEUTICS PTY LTD, priority 2019, dated 2025):
Substitutions are numbered along the chain they refer to. Like-named read-outs stand apart in the source and are kept apart here.

Assays:
CDK2E1 = CDK2E1 (Homo sapiens, UniProt P24941)
U937 = assay: Proliferation assay (resazurin/MTT), U937; type: cell-based; details: Homo sapiens, U-937, read-out: 72 h Growth inhibition GI50, U937 cells
CDK1B [1] = target: T1, CDK1B (Homo sapiens, UniProt P06493); assay: biochemical
CDK6/D3 = CDK6/D3 (Homo sapiens, UniProt Q00534); assay: ADP Glo kinase assay, CDK6/D3; type: biochemical; details: CDK6D3; for Ki: apparent Ki calculated from Km (ATP) and IC50, read-out: CDK inhibition Ki; for remaining activity at 10 µM: compound at 10 μM, read-out: residual enzymatic activity (%) at 10 μM; for remaining activity at 1 µM: compound at 1 μM (values marked *), read-out: residual enzymatic activity (%) at 1 μM*
Procedure: Inhibition of FLT3(WT), FLT3(ITD) and FLT3(D835Y) and CDKs were determined using ADP Glo Kinase assays (Promega Corporation, Madison, WI, USA). […] Similarly, kinase reaction for CDK4/D1 and CDK6/D3 was performed with reaction buffer (40 nM Tris base pH 7.5, 20 mM MgCl2, 0.4 mM DTT), 0.1 mg/ml BSA and RB-CTF substrate (retinoblastoma protein1 C-terminal fraction). For CDK9/CyclinT1, the kinase reaction was performed with the standard assay buffer and Kinase Dilution Buffer and RBER-IRStide substrate. Half-maximal inhibition (IC50) values were calculated using a 4-parameter logistic non-linear regression model with Graphpad prism (Version 6.0). Apparent inhibition constants (Ki) values were calculated from Km (ATP) and IC50 values for the respective kinases.

CDK4/D1 = CDK4/D1 (Homo sapiens, UniProt P11802); assay: ADP Glo kinase assay, CDK4/D1; type: biochemical; details: CDK4D1; for Ki: apparent Ki calculated from Km (ATP) and IC50, read-out: CDK inhibition Ki; for remaining activity at 10 µM: compound at 10 μM, read-out: residual enzymatic activity (%) at 10 μM; for remaining activity at 1 µM: compound at 1 μM (values marked *), read-out: residual enzymatic activity (%) at 1 μM*
MV-4-11 = assay: Proliferation assay (resazurin/MTT), MV-4-11; type: cell-based; details: Homo sapiens, MV4-11, read-out: 72 h Growth inhibition GI50, MV-4-11 cells
CDK7HMAT1 [2] = target: T2, CDK7HMAT1 (Homo sapiens, UniProt P50613); assay: biochemical;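 note: kinase activity measured with an ADP-Glo luminescent kinase assay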
Procedure: (§1) Inhibition of FLT3(WT), FLT3(ITD) and FLT3(D835Y) and CDKs were determined using ADP Glo Kinase assays (Promega Corporation, Madison, WI, USA). […] The kinase reactions are run for an optimised time period (FLT3-WT: 120 min, FLT3-ITD: 80 min, FLT3-D835Y: 100 min) at room temperature and then the reaction was stopped by adding 5 μL of ADP Glo reagent. […] Positive and negative controls were performed in 0.5% DMSO in the presence and absence of each FLT3 kinase, respectively. […] Half-maximal inhibition (IC50) values were calculated using a 4-parameter logistic non-linear regression model with Graphpad prism (Version 6.0). Apparent inhibition constants (Ki) values were calculated from Km (ATP) and IC50 values for the respective kinases.

CDK9/CyclinT1 = CDK9/CyclinT1 (Homo sapiens, UniProt P50750); assay: ADP Glo kinase assay, CDK9/CyclinT1; type: biochemical; details: CDK9T1; for Ki: apparent Ki calculated from Km (ATP) and IC50, read-out: CDK inhibition Ki; for remaining activity at 10 µM: compound at 10 μM, read-out: residual enzymatic activity (%) at 10 μM
FLT3(ITD) = target: T3, FLT3(ITD) (Homo sapiens, UniProt P36888); assay: ADP Glo kinase assay, FLT3(ITD); type: biochemical; details: apparent Ki calculated from Km (ATP) and IC50, read-out: FLT3 inhibition Ki
T3 sequence (P36888 1-993): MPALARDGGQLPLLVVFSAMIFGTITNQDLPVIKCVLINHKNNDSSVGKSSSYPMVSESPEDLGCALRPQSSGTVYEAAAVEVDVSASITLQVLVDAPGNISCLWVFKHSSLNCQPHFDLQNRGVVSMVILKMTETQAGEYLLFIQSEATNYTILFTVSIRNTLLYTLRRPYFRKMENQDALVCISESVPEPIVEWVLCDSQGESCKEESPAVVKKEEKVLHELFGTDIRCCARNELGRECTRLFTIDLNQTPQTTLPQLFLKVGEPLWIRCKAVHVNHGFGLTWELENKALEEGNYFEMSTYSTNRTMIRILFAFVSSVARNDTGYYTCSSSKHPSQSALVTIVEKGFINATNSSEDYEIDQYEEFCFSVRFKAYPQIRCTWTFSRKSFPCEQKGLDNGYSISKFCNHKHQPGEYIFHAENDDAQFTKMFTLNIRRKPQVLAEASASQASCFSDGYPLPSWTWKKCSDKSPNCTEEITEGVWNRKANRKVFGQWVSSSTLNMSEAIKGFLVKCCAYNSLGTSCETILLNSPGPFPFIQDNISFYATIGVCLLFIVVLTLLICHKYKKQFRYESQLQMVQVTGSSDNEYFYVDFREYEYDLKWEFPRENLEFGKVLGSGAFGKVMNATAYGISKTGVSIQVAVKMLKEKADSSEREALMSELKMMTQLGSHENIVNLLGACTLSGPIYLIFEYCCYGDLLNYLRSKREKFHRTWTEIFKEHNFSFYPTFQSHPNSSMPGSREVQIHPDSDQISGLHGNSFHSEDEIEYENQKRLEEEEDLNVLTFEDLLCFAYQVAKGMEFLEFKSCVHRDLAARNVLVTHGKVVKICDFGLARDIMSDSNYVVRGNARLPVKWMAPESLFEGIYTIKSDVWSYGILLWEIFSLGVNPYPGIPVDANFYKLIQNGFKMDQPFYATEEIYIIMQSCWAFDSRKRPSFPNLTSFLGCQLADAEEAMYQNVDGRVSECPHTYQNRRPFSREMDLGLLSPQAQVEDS

FLT3(D835Y) = target: T4, FLT3(D835Y) (Homo sapiens, UniProt P36888, D835Y); assay: ADP Glo kinase assay, FLT3(D835Y); type: biochemical; details: apparent Ki calculated from Km (ATP) and IC50, read-out: FLT3 inhibition Ki
T4 sequence (P36888 27-993 D835Y): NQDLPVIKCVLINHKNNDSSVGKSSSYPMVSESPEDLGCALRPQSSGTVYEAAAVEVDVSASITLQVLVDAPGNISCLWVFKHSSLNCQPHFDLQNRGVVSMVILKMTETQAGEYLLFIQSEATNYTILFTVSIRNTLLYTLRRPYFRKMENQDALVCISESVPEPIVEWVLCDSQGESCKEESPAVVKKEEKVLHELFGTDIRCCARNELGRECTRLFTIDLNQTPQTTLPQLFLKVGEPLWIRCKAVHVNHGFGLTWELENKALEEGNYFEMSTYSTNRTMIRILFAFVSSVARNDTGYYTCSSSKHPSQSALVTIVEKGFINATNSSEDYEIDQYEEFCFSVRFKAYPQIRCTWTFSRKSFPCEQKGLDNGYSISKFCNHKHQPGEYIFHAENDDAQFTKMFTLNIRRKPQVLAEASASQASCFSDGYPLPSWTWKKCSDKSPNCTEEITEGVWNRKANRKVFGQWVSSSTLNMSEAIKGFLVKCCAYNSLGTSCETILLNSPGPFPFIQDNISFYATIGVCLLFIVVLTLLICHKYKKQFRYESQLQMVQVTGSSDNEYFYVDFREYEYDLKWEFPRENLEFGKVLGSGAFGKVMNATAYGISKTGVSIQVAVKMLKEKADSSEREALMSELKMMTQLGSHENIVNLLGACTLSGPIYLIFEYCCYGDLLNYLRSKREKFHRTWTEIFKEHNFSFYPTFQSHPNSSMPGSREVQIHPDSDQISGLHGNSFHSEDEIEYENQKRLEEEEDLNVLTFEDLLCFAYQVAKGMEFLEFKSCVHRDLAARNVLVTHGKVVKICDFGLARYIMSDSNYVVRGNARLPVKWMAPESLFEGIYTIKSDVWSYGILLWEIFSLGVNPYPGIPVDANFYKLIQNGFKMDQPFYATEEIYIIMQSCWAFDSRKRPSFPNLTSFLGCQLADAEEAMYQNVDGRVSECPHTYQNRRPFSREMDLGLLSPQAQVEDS
Procedure: as §1

CDK7HMAT1 [3] = target: T2, CDK7HMAT1
Procedure: as §1

FLT3(WT) = target: T5, FLT3(WT) (Homo sapiens, UniProt P36888); assay: ADP Glo kinase assay, FLT3(WT); type: biochemical
T5 sequence (P36888 27-993): T4 sequence (P36888 27-993 D835Y) with Y809D
Procedure: as §1

CDK1B [4] = target: T1, CDK1B

Sequence of CDK4/D1 (P11802 whole entry, species assumed): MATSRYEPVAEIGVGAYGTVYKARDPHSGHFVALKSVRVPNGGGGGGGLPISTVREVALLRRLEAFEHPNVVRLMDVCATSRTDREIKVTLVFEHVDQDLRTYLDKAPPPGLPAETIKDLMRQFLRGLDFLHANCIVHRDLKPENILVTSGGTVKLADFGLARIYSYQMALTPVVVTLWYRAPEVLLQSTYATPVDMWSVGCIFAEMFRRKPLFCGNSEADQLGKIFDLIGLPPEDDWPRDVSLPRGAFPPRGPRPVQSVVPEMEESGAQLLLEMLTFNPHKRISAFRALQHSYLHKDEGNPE
Sequence of CDK4/D1 (P24385 whole entry partner, species assumed): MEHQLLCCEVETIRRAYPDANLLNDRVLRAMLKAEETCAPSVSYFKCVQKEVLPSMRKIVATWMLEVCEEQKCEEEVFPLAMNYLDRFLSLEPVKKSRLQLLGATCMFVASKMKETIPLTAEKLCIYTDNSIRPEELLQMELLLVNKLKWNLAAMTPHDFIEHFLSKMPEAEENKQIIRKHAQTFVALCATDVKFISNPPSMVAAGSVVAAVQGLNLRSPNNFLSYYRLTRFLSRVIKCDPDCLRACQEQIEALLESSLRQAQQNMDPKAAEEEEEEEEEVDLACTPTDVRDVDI
T1 sequence (P06493 whole entry): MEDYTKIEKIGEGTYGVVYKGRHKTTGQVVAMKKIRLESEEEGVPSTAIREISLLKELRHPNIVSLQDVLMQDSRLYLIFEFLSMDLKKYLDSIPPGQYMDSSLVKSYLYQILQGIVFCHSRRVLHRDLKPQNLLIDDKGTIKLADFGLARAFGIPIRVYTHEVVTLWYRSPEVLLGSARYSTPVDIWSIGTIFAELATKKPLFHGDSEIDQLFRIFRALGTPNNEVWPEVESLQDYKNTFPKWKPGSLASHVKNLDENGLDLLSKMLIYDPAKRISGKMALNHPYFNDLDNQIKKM
T1 sequence (P14635 whole entry partner): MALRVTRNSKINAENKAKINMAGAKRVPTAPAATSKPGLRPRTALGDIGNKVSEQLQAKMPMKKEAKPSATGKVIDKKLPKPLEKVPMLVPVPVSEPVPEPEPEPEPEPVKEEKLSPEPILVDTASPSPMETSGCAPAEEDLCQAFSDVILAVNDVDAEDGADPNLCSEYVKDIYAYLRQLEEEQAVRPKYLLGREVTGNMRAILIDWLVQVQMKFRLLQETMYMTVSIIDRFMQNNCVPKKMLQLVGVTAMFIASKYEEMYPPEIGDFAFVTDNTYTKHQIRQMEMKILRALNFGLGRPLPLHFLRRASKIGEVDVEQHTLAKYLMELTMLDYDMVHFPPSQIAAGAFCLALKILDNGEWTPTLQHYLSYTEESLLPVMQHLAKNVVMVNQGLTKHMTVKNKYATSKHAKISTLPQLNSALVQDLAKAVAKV
Sequence of CDK6/D3 (Q00534 whole entry, species assumed): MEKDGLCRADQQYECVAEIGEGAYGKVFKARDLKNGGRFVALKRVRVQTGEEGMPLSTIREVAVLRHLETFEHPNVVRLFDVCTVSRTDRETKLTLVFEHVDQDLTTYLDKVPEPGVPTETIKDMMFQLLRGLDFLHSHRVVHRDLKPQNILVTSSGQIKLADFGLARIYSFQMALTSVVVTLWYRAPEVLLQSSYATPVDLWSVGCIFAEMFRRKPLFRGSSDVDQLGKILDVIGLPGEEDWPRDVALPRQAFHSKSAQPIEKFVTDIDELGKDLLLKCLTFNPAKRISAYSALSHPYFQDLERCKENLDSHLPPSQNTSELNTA
Sequence of CDK6/D3 (P30281 whole entry partner, species assumed): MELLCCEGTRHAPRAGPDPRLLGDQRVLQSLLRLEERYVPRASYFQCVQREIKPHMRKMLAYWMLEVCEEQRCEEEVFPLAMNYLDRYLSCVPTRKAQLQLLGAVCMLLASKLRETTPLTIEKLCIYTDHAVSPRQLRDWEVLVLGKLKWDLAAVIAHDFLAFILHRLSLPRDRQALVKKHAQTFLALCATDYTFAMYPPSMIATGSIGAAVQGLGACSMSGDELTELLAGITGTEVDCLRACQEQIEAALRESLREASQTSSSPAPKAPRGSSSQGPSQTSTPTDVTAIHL
T2 sequence (P50613 whole entry): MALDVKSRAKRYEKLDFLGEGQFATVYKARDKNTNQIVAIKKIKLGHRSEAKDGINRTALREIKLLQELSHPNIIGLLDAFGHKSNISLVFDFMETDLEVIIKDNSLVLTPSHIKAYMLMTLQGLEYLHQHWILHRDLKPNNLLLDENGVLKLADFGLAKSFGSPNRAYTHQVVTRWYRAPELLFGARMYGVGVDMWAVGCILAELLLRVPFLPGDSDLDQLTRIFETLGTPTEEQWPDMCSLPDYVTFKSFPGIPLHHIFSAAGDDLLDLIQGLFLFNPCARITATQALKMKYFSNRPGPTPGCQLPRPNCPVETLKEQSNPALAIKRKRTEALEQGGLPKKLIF
T2 sequence (P51946 whole entry partner): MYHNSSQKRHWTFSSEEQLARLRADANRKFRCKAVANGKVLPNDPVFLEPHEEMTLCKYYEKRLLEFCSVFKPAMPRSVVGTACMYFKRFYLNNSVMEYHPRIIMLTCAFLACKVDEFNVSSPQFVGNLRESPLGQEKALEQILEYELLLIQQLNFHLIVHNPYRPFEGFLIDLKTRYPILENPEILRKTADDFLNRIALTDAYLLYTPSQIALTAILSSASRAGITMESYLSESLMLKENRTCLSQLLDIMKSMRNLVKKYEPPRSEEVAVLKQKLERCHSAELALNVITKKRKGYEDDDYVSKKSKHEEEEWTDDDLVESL
T2 sequence (P51948 whole entry partner): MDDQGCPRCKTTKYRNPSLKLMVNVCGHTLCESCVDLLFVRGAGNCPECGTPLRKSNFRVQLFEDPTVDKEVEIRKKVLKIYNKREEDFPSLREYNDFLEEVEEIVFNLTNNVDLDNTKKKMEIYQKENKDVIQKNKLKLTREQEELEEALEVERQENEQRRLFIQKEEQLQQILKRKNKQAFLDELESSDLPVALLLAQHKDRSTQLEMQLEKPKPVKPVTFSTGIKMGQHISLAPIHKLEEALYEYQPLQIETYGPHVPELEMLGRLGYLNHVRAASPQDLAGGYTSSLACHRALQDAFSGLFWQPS
Sequence of CDK9/CyclinT1 (P50750 whole entry, species assumed): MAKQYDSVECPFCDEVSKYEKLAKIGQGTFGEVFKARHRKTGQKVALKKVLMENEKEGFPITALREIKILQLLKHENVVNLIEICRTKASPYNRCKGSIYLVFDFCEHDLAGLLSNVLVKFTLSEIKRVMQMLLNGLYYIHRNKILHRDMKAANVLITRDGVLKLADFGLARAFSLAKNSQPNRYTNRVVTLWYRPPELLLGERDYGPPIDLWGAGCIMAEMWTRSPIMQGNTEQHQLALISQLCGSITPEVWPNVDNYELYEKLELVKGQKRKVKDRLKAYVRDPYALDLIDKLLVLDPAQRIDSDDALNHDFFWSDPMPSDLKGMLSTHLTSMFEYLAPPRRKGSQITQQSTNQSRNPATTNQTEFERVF
Sequence of CDK9/CyclinT1 (O60563 whole entry partner, species assumed): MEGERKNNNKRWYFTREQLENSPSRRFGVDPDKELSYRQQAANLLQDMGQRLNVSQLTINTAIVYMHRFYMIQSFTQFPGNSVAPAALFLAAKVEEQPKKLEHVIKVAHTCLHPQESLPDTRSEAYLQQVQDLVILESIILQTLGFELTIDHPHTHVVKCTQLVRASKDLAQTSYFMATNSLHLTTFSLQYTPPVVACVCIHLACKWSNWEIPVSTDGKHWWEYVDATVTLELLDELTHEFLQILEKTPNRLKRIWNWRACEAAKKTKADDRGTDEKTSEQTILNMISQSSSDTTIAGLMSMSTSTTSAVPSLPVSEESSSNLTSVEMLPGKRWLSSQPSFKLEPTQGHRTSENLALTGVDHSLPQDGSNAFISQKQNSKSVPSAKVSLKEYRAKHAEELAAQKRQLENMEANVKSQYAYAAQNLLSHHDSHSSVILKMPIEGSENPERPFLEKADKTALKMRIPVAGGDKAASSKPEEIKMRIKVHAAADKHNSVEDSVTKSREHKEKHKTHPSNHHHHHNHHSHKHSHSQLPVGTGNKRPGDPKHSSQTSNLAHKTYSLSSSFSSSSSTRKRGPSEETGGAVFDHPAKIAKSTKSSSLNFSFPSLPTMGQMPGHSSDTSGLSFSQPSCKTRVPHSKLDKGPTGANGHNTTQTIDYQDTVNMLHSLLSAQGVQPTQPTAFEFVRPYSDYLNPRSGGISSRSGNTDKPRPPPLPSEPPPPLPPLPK

SMILES | activity (CDK2E1; 1 µM) [%] | GI50 (U937) [nM] | Ki (CDK1B [1]) [nM] | Ki (CDK6/D3) [nM] | Ki (CDK4/D1) [nM] | GI50 (MV-4-11) [nM] | Ki (CDK7HMAT1 [2]) [nM] | Ki (CDK9/CyclinT1) [nM] | activity (CDK7HMAT1 [3]; 10 µM) [%] | remaining activity at 10 µM (CDK4/D1) [%] | other results
c1ccn2c(-c3ccnc(Nc4ccc(N5CCNCC5)cn4)n3)cnc2c1 [Cmpd 1, 4-(Imidazo[1,2-a]pyridin-3-yl)-N-(5-(piperazin-1-yl)pyridin-2-yl)pyrimidin-2-amine] | 69 | 497 | 1340 | 900 | 116 | 9 | 1190 | 37 | – | – | –
CC(=O)N1CCN(c2ccc(Nc3nccc(-c4cnc5ccccn45)n3)nc2)CC1 [Cmpd 3, 1-(4-(6-((4-(Imidazo[1,2-a]pyridin-3-yl)pyrimidin-2-yl)amino)pyridin-3-yl)piperazin-1-yl)ethan-1-one] | – | 2850 | 3460 | > 10000 | 1970 | 20 | – | 519 | – | – | activity (CDK2E1; 10 µM): 49%
c1ccn2c(-c3ccnc(Nc4ccc(N5CCCCC5)cn4)n3)cnc2c1 [Cmpd 5, 4-(Imidazo[1,2-a]pyridin-3-yl)-N-(5-(piperidin-1-yl)pyridin-2-yl)pyrimidin-2-amine] | 81 | 6200 | – | – | – | 75 | – | – | 84 | 53 | Ki (FLT3(ITD)): 63 nM; Ki (FLT3(D835Y)): 45 nM; remaining activity at 1 µM (FLT3(WT); compound at 1 μM, read-out: residual enzymatic activity (%) at 1 μM): 45%; remaining activity at 10 µM (CDK6/D3): 23%; activity (CDK1B [4]; 10 µM): 48%; remaining activity at 10 µM (CDK9/CyclinT1): 28%
CC(=O)N1CCN(c2ccc(Nc3nccc(-c4cnc5ccc(-c6ccoc6)cn45)n3)nc2)CC1 [Cmpd 25, 1-(4-(6-((4-(6-(Furan-3-yl)imidazo[1,2-a]pyridin-3-yl)pyrimidin-2-yl)amino)pyridin-3-yl)piperazin-1-yl)ethan-1-one] | 40 | 765 | – | – | – | 5 | 186 | 71 | – | – | remaining activity at 1 µM (CDK6/D3): 52%; remaining activity at 1 µM (CDK4/D1): 75%; activity (CDK1B [4]; 1 µM): 95%
CC(=O)N1CCN(c2ccc(Nc3nccc(-c4cnc5ccc(C)cn45)n3)nc2)CC1 [Cmpd 13, 1-(4-(6-((4-(6-Methylimidazo[1,2-a]pyridin-3-yl)pyrimidin-2-yl)amino)pyridin-3-yl)piperazin-1-yl)ethan-1-one] | 52 | 1470 | 2450 | 2400 | 419 | 6 | – | 163 | 77 | – | –
CC(=O)N1CCN(c2ccc(Nc3nccc(-c4cnc5ccc(-c6cn[nH]c6)cn45)n3)nc2)CC1 [Cmpd 24, 1-(4-(6-((4-(6-(1H-Pyrazol-4-yl)imidazo[1,2-a]pyridin-3-yl)pyrimidin-2-yl)amino)pyridin-3-yl)piperazin-1-yl)ethan-1-one] | 24 | 466 | – | – | – | 25 | 1190 | 125 | – | 66 | remaining activity at 10 µM (CDK6/D3): 61%; activity (CDK1B [4]; 10 µM): 35%
c1ccn2c(-c3ccnc(Nc4ccc(N5CCOCC5)cn4)n3)cnc2c1 [Cmpd 4, 4-(Imidazo[1,2-a]pyridin-3-yl)-N-(5-morpholinopyridin-2-yl)pyrimidin-2-amine] | 72 | 3360 | 1480 | 2900 | – | 38 | – | – | 74 | 38 | remaining activity at 10 µM (CDK9/CyclinT1): 28%
CC(=O)N1CCN(c2ccc(Nc3nccc(-c4cnc5ccc(I)cn45)n3)nc2)CC1 [Cmpd 43, 1-(4-(6-((4-(6-Iodoimidazo[1,2-a]pyridin-3-yl)pyrimidin-2-yl)amino)pyridin-3-yl)piperazin-1-yl)ethan-1-one] | 75 | 3570 | – | – | – | 6 | – | 475 | – | – | Ki (FLT3(ITD)): 44 nM; Ki (FLT3(D835Y)): 18 nM; activity (CDK7HMAT1 [3]; 1 µM): 75%; Ki (FLT3(WT); apparent Ki calculated from Km (ATP) and IC50, read-out: FLT3 inhibition Ki): 38 nM; remaining activity at 1 µM (CDK6/D3): 70%; remaining activity at 1 µM (CDK4/D1): 70%; activity (CDK1B [4]; 1 µM): 92%
